Experimental data as given in patent US8632832B2, “Direct dissolution” (Phares Pharmaceutical Research N.V., priority 2005, dated 2014).

Assays:
[1] = Degree of dissolution of the carotenoid in the oily phase: filtration through a 0.45 μm pore size filter, then HPLC of the filtrate; format: physicochemical
Experimental: “Dissolving” or “dissolution” means obtaining molecular dispersions or molecular aggregates of a carotenoid which may be monomers, dimers, trimers etc and/or colloidal dispersions of the carotenoid. Assessment of the degree of dissolution of the carotenoid in an oily phase is performed by filtration of the oily phase through a 0.45 μm pore size filter, followed by HPLC determination of the carotenoid content in the filtrate and compared with the total carotenoid concentration in the unfiltered oily phase. “Substantially” means at least 40 wt %.
(§1) The oily astaxanthin solution may be further processed by mixing with fish feed pellets.

[2] = HPLC analysis of trans/cis isomer content and degradation products after in-line heating and cooling; format: physicochemical; conditions: 1 s
Excerpt: as §1

[3] = Example 2: 1500 or 250 ppm astaxanthin composition, heated 150° C., then cooled

- degree of dissolution of astaxanthin after filtration through 0.45 μm filter (HPLC) ([1]; Example 2: 1500 or 250 ppm astaxanthin composition in soya bean oil/fish oil, heated 150° C., transit time 1 s, then cooled): completely solubilised
- degree of dissolution of astaxanthin after filtration through 0.45 μm filter (HPLC) ([1]; Example 3: 250 ppm astaxanthin composition in soy bean oil/fish oil, heated 126° C., 1 s, then cooled with fish oil of 23° C.): completely solubilised
- all trans-astaxanthin content [2, 3]: 75%
- cis isomers content [2, 3]: 25%
- further degradation products [2, 3]: no further degradation products
- cis-isomers content ([2]; Example 3: 250 ppm astaxanthin composition, heated 126° C., then cooled with fish oil of 23° C.): 12%
Compound: CC1=C(/C=C/C(C)=C/C=C/C(C)=C/C=C/C=C(C)/C=C/C=C(C)/C=C/C2=C(C)C(=O)[C@@H](O)CC2(C)C)C(C)(C)C[C@H](O)C1=O [astaxanthin]
